# In ChEMBL document CHEMBL5226379, “Hypouricemic Actions of the Pericarp of Mangosteen in Vitro and in Vivo” (J Nat Prod, 2023):
# The source made the active and inactive calls. The calls are words filed in the database; no cut-off is given here.
# What was measured:
# Rattus norvegicus [1] = assay: Anti-hyperuricemic activity against potassium oxonate-induced hyperuricemic Sprague-Dawley rat model assessed as serum urea nitrogen level at 4 mg/kg, po pre-administered via gavage twice daily for 5 times followed by potassium oxonate injection for 1 hrs prior to last dose and measured after 3 hrs; assay type: functional; details: time 123 hrs
# Rattus norvegicus [2] = assay: Anti-hyperuricemic activity against potassium oxonate-induced hyperuricemic Sprague-Dawley rat model assessed as ratio of urinary urate to urinary creatinine at 1 mg/kg, po pre-administered via gavage twice daily for 5 times followed by potassium oxonate injection for 1 hrs prior to last dose and measured after 3 hrs; assay type: functional; details: time 123 hrs
# Rattus norvegicus [3] = assay: Anti-hyperuricemic activity against potassium oxonate-induced hyperuricemic Sprague-Dawley rat model assessed as urinary urate level at 4 mg/kg, po pre-administered via gavage twice daily for 5 times followed by potassium oxonate injection for 1 hrs prior to last dose and measured after 3 hrs; assay type: functional; details: time 123 hrs
# [4] = target: Xanthine dehydrogenase/oxidase (Homo sapiens, UniProt P47989); assay: Inhibition of XOD (unknown origin) using xanthine as substrate assessed as inhibition of uric acid generation at 100 mg/L preincubated for 15 mins followed by xanthine addition and measured by spectrophotometric analysis relative to control
# Rattus norvegicus [5] = assay: Anti-hyperuricemic activity against potassium oxonate-induced hyperuricemic Sprague-Dawley rat model assessed as fractional excretion of urate at 2 mg/kg, po pre-administered via gavage twice daily for 5 times followed by potassium oxonate injection for 1 hrs prior to last dose and measured after 3 hrs relative to control; assay type: functional; details: time 123 hrs
# Rattus norvegicus [6] = assay: Anti-hyperuricemic activity against potassium oxonate-induced hyperuricemic Sprague-Dawley rat model assessed as fractional excretion of urate at 4 mg/kg, po pre-administered via gavage twice daily for 5 times followed by potassium oxonate injection for 1 hrs prior to last dose and measured after 3 hrs relative to control; assay type: functional; details: time 123 hrs
# Rattus norvegicus [7] = assay: Anti-hyperuricemic activity against potassium oxonate-induced hyperuricemic Sprague-Dawley rat model assessed as glomerular load of urate measured per body surface area of 0.0311 m2 at 1 mg/kg, po pre-administered via gavage twice daily for 5 times followed by potassium oxonate injection for 1 hrs prior to last dose and measured after 3 hrs; assay type: functional; details: time 123 hrs
# Rattus norvegicus [8] = assay: Anti-hyperuricemic activity against potassium oxonate-induced hyperuricemic Sprague-Dawley rat model assessed as increase in urinary urate level at 2 mg/kg, po pre-administered via gavage twice daily for 5 times followed by potassium oxonate injection for 1 hrs prior to last dose and measured after 3 hrs relative to control; assay type: functional; details: time 123 hrs
# Rattus norvegicus [9] = assay: Anti-hyperuricemic activity against potassium oxonate-induced hyperuricemic Sprague-Dawley rat model assessed as urinary urate at 2 mg/kg, po pre-administered via gavage twice daily for 5 times followed by potassium oxonate injection for 1 hrs prior to last dose and measured after 3 hrs; assay type: functional; details: time 123 hrs
# Rattus norvegicus [10] = assay: Anti-hyperuricemic activity against potassium oxonate-induced hyperuricemic Sprague-Dawley rat model assessed as clearance of creatinine measured per body surface area of 0.0311 m2 at 4 mg/kg, po pre-administered via gavage twice daily for 5 times followed by potassium oxonate injection for 1 hrs prior to last dose and measured after 3 hrs; assay type: functional; details: time 123 hrs
# Rattus norvegicus [11] = assay: Anti-hyperuricemic activity against potassium oxonate-induced hyperuricemic Sprague-Dawley rat model assessed as urinary urate at 4 mg/kg, po pre-administered via gavage twice daily for 5 times followed by potassium oxonate injection for 1 hrs prior to last dose and measured after 3 hrs; assay type: functional; details: time 123 hrs
# Homo sapiens = species on record: Homo sapiens; assay: Inhibition of uricase (unknown origin) using uric acid as substrate at 75 mg/L preincubated with compounds for 15 mins followed by uric acid addition
# Rattus norvegicus [12] = assay: Anti-hyperuricemic activity against potassium oxonate-induced hyperuricemic Sprague-Dawley rat model assessed as urine volume at 4 mg/kg, po pre-administered via gavage twice daily for 5 times followed by potassium oxonate injection for 1 hrs prior to last dose and measured after 3 hrs; assay type: functional; details: time 123 hrs
# Rattus norvegicus [13] = assay: Anti-hyperuricemic activity against potassium oxonate-induced hyperuricemic Sprague-Dawley rat model assessed as serum urea nitrogen level at 2 mg/kg, po pre-administered via gavage twice daily for 5 times followed by potassium oxonate injection for 1 hrs prior to last dose and measured after 3 hrs; assay type: functional; details: time 123 hrs
# Rattus norvegicus [14] = assay: Anti-hyperuricemic activity against potassium oxonate-induced hyperuricemic Sprague-Dawley rat model assessed as ratio of urinary urate to urinary creatinine at 2 mg/kg, po pre-administered via gavage twice daily for 5 times followed by potassium oxonate injection for 1 hrs prior to last dose and measured after 3 hrs; assay type: functional; details: time 123 hrs
# Rattus norvegicus [15] = assay: Anti-hyperuricemic activity against potassium oxonate-induced hyperuricemic Sprague-Dawley rat model assessed as excretion of urate per volume of glomerular filtration measured per body surface area of 0.0311 m2 at 1 mg/kg, po pre-administered via gavage twice daily for 5 times followed by potassium oxonate injection for 1 hrs prior to last dose and measured after 3 hrs; assay type: functional; details: time 123 hrs
# Rattus norvegicus [16] = assay: Anti-hyperuricemic activity against potassium oxonate-induced hyperuricemic Sprague-Dawley rat model assessed as clearance of urate measured per body surface area of 0.0311 m2 at 4 mg/kg, po pre-administered via gavage twice daily for 5 times followed by potassium oxonate injection for 1 hrs prior to last dose and measured after 3 hrs; assay type: functional; details: time 123 hrs
# Rattus norvegicus [17] = assay: Anti-hyperuricemic activity against potassium oxonate-induced hyperuricemic Sprague-Dawley rat model assessed as urinary urate at 1 mg/kg, po pre-administered via gavage twice daily for 5 times followed by potassium oxonate injection for 1 hrs prior to last dose and measured after 3 hrs; assay type: functional; details: time 123 hrs
# Mus musculus [18] = assay: Hypouricemic activity in potassium oxonate-induced hyperuricemic Kunming mouse model assessed as decrease in serum uric acid level pre-administered intragastrically via gavage twice daily for 5 times followed by potassium oxonate injection for 1 hrs prior to last dose by phosphotungstic acid method; assay type: functional, organism-based; details: dose 1-4 mg/kg, time 5.0 day
# Rattus norvegicus [19] = assay: Anti-hyperuricemic activity against potassium oxonate-induced hyperuricemic Sprague-Dawley rat model assessed as serum creatinine level at 4 mg/kg, po pre-administered via gavage twice daily for 5 times followed by potassium oxonate injection for 1 hrs prior to last dose and measured after 3 hrs; assay type: functional; details: time 123 hrs
# [20] = Toxicity in Kunming mouse assessed as decrease in serum uric acid level upto 250 mg/kg; assay type: organism-based; details: in vivo
# [21] = Acute toxicity in mouse assessed as behavioral changes at 50 g/Kg, IG measured for 14 days; details: in vivo, po, 50000 mg/kg, 336 h, time 14 day
# Rattus norvegicus [22] = assay: Anti-hyperuricemic activity against potassium oxonate-induced hyperuricemic Sprague-Dawley rat model assessed as clearance of creatinine measured per body surface area of 0.0311 m2 at 2 mg/kg, po pre-administered via gavage twice daily for 5 times followed by potassium oxonate injection for 1 hrs prior to last dose and measured after 3 hrs; assay type: functional; details: time 123 hrs
# Rattus norvegicus [23] = assay: Anti-hyperuricemic activity against potassium oxonate-induced hyperuricemic Sprague-Dawley rat model assessed as glomerular load of urate measured per body surface area of 0.0311 m2 at 2 mg/kg, po pre-administered via gavage twice daily for 5 times followed by potassium oxonate injection for 1 hrs prior to last dose and measured after 3 hrs; assay type: functional; details: time 123 hrs
# [24] = Acute toxicity in mouse assessed as mortality at 50 g/Kg, IG measured for 14 days; details: in vivo, po, 50000 mg/kg, 336 h, time 14 day
# Mus musculus [25] = assay: Anti-hyperuricemic activity against uric acid-induced hyperuricemic Kunming mouse model assessed as decrease in GLUT9 protein level in kidney at 2 to 8 mg/kg, pre-administered with uric acid for 3.5 days followed by compound administration via gavage twice a day for seven times by ELISA analysis; assay type: functional, organism-based; details: dose 2-8 mg/kg, time 7.0 day
# Rattus norvegicus [26] = assay: Anti-hyperuricemic activity against potassium oxonate-induced hyperuricemic Sprague-Dawley rat model assessed as excretion of urate per volume of glomerular filtration measured per body surface area of 0.0311 m2 at 4 mg/kg, po pre-administered via gavage twice daily for 5 times followed by potassium oxonate injection for 1 hrs prior to last dose and measured after 3 hrs; assay type: functional; details: time 123 hrs
# Chain of Xanthine dehydrogenase/oxidase (P47989 whole entry): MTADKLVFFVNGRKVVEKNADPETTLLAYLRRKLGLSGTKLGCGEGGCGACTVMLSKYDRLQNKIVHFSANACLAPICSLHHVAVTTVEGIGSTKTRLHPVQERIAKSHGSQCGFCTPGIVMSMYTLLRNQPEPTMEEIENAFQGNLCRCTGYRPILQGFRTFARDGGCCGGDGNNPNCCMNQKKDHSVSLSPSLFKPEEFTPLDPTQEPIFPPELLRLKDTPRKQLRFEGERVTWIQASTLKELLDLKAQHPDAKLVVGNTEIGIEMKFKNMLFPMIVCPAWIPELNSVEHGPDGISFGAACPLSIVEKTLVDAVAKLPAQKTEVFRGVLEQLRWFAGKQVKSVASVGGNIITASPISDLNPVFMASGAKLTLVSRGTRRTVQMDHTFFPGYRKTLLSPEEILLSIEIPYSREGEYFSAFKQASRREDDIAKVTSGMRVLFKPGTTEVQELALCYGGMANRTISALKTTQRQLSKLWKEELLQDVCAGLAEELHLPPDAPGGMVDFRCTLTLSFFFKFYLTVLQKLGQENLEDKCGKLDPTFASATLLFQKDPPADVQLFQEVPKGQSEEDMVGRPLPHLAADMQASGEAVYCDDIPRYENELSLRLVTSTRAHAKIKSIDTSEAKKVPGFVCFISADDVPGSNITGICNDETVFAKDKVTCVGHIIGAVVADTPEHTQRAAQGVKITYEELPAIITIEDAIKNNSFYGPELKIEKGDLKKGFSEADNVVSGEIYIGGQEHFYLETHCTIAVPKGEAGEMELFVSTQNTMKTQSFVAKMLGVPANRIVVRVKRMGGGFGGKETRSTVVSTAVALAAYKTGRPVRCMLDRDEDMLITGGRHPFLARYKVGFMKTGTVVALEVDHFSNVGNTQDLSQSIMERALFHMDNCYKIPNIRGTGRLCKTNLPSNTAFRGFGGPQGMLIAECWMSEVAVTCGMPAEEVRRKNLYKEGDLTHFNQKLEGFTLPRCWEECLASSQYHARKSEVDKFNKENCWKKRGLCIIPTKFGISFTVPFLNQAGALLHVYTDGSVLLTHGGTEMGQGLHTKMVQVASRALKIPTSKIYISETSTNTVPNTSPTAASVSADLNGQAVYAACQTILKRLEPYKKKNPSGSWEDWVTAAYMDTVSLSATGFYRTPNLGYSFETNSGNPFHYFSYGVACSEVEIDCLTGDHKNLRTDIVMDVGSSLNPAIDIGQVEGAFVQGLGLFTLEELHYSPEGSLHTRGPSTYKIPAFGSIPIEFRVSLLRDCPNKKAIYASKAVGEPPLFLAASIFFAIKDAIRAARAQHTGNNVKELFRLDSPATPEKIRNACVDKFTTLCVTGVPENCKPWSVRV
compound,measurement,setting,value
COc1c(O)cc2oc3cc(O)c(CC=C(C)C)c(O)c3c(=O)c2c1CC=C(C)C [MANGOSTIN],Activity,Rattus norvegicus [1],10.1 mmol/L
same,Ratio,Rattus norvegicus [2],2.7
same,Activity,Rattus norvegicus [3],2.4 mmol/L
same,inhibition at 100 µg/mL,[4],1.4%
same,Activity,Rattus norvegicus [5],77%
same,Activity,Rattus norvegicus [6],85%
same,Activity,Rattus norvegicus [7],4.4 µmol/min
same,Activity,Rattus norvegicus [8],42%
same,Activity,Rattus norvegicus [9],465 µmol
same,Activity,Rattus norvegicus [10],18.6 mL/min
same,Activity,Rattus norvegicus [11],476 µmol
same,inhibition,Homo sapiens,2.6%
same,Activity,Rattus norvegicus [12],6.2 mL
same,Activity,Rattus norvegicus [13],10.9 mmol/L
same,Ratio,Rattus norvegicus [14],3.2
same,Activity,Rattus norvegicus [15],4.9 µmol/L
same,Activity,Rattus norvegicus [16],14 mL/min
same,Activity,Rattus norvegicus [17],501 µmol
same,Activity,Mus musculus [18],Dose-Dependent Effect
same,Activity,Rattus norvegicus [19],55 µmol/L
same,Activity,[20],Non-Toxic
same,Activity,[21],Non-Toxic
same,Activity,Rattus norvegicus [22],15.4 mL/min
same,Activity,Rattus norvegicus [23],3.6 µmol/min
same,Activity,[24],Non-Toxic
same,Activity,Mus musculus [25],Active
same,Activity,Rattus norvegicus [26],5.3 µmol/L
